Experimental data reported in patent US20240376121A1, “COMPOUNDS AND USES THEREOF” (Foghorn Therapeutics Inc., priority 2021, published 2024).

What was measured:
HiBit-BRM fusion protein = target: T1, HiBit-BRM fusion protein (Homo sapiens, UniProt P51531); assay: HiBiT-BRM cell-based degradation assay (Nano-Glo HiBiT Lytic Detection); details: stable HeLa cell line expressing HiBiT-BRM, 24 h incubation; for BRM HiBit Degradation Maximum (%): top dose 30 μM; for DC50: read-out: BRM HiBit Degradation IC50
T1 construct: expressed in transfected cells
In short: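 Stable HiBiT-BRM HeLa line; 24 h compound exposure, top final 30 μM, 3-fold, 10 pts in duplicate. Lytic HiBiT/LgBiT luminescence readout. % degradation vs DMSO (0%) and 2 μM known BRM/BRG1 degrader (100%).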

[1] = target: T2, HiBit-BRG1 fusion protein (Homo sapiens, UniProt P51532); assay: HiBiT-BRG1 cell-based degradation assay (Nano-Glo HiBiT Lytic Detection); details: stable HeLa cell line expressing HiBit-BRG1 and LgBit, 24 h incubation; for Dmax: top dose 30 μM, read-out: BRG1 HiBit Degradation Maximum (%); for DC50: read-out: BRMG1 HiBit Degradation IC50
T2 construct: expressed in transfected cells
In short: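 Degradation was scored from HiBiT lytic luminescence, scaled between DMSO-treated wells and wells given 2 μM of a standard BRM/BRG1 degrader. Cells were a stable HeLa HiBiT-BRG1/LgBiT line dosed for 24 h, ten concentrations in 3-fold steps from 30 μM, in duplicate.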

T1 sequence (P51531 whole entry, the tested form may be a part): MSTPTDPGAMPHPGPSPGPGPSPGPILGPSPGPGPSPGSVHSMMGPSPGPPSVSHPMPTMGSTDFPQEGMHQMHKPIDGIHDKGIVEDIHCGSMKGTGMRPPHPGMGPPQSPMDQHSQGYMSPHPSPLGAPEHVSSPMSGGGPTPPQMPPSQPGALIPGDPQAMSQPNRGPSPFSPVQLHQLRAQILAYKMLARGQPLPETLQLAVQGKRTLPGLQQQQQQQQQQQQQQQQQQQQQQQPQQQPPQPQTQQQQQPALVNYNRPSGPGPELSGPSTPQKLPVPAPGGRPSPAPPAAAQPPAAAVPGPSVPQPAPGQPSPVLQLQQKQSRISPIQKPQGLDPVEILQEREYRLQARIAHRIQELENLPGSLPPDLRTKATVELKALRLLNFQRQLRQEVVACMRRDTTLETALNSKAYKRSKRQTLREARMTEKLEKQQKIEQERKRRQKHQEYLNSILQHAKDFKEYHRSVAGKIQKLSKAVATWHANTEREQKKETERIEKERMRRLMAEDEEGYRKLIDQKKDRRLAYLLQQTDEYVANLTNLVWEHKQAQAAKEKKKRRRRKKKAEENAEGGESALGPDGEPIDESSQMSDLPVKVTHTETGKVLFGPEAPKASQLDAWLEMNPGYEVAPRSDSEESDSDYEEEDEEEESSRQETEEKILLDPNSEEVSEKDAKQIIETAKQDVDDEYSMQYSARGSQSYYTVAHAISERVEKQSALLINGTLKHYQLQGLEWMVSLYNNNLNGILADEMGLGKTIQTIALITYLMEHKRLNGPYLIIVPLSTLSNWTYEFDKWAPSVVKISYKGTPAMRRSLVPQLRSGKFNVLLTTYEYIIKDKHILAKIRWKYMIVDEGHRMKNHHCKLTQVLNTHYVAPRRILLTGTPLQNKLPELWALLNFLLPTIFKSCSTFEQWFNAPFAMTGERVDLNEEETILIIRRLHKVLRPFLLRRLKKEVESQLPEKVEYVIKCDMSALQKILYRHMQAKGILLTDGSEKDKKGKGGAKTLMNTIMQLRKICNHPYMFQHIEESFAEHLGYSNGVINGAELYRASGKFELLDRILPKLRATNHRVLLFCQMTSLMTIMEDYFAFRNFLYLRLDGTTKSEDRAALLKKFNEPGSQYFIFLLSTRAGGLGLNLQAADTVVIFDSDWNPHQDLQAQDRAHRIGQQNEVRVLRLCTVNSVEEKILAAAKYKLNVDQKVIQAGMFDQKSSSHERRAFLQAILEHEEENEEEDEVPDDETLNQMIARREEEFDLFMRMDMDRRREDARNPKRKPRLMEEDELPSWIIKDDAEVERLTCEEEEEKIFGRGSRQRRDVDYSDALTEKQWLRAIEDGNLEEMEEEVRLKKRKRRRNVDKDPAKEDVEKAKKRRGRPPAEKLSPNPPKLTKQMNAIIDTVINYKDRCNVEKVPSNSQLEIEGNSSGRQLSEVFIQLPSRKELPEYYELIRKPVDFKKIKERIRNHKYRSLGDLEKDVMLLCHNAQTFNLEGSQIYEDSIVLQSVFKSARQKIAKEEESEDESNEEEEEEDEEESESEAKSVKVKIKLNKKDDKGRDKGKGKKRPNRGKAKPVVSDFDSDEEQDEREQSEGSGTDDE
T2 sequence (P51532 whole entry, the tested form may be a part): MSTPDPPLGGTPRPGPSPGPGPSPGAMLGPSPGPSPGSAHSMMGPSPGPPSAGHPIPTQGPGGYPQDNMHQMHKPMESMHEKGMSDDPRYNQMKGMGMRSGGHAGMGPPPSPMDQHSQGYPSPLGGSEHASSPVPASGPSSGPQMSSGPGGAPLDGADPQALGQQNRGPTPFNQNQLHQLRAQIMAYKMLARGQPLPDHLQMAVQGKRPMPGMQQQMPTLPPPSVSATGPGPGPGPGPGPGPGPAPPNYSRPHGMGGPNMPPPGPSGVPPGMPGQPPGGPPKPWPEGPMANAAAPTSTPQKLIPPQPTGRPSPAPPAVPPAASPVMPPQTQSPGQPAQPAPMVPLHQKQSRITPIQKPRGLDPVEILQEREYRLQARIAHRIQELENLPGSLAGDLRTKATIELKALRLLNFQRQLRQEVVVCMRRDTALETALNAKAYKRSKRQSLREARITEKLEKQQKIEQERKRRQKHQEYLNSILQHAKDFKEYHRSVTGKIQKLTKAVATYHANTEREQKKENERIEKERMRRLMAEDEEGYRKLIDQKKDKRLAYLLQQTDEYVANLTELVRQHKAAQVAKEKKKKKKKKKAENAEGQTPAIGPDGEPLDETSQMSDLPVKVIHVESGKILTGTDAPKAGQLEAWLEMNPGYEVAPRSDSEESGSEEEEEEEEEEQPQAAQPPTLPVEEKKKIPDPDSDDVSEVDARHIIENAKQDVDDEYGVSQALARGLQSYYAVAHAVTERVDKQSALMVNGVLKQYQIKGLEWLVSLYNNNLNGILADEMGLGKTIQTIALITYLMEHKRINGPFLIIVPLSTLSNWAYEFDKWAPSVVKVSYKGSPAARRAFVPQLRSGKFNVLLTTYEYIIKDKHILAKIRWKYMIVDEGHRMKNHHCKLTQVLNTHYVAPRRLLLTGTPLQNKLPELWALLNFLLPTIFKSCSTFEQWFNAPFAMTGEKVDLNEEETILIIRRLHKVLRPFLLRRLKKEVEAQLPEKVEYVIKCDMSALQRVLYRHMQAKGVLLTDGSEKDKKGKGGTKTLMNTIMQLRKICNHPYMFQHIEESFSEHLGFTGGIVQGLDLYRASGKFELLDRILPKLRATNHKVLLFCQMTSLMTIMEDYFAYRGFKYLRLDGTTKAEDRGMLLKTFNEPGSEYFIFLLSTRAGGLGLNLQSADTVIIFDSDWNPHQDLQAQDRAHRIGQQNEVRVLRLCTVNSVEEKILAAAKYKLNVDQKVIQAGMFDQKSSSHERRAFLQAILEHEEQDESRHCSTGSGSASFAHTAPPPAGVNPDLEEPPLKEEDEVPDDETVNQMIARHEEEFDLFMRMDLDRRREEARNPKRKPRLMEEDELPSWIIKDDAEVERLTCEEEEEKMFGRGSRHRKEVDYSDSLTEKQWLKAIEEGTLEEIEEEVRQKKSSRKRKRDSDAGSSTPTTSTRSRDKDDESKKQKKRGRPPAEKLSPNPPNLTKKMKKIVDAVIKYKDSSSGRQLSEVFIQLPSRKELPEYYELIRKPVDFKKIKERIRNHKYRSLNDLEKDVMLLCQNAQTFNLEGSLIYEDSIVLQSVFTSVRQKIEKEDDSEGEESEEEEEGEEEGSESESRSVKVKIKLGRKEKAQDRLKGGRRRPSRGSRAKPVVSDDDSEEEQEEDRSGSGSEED

SMILES	DC50 (HiBit-BRM fusion protein)	Dmax [1]	DC50 [1]	BRM HiBit Degradation Maximum (%) (HiBit-BRM fusion protein)
Cc1ncsc1-c1ccc([C@H](C)NC(=O)[C@@H]2C[C@@H](O)CN2C(=O)[C@@H](c2cc(OCCN3C[C@H]4C[C@@H](C3)[C@@H]4c3cc4cc(-c5ccccc5O)nnc4s3)no2)C(C)C)cc1 [Compound 71, (2S,4R)-4-hydroxy-N-[(1S)-1-[4-(4-methyl-1,3-thiazol-5-yl)phenyl]ethyl]-1-[(2R)-3-methyl-2-(3-{2-[(1R,5S,6r)-6-[3-(2-hydroxyphenyl)thieno[2,3-c]pyridazin-6-yl]-3-azabicyclo[3.1.1]heptan-3-yl]ethoxy}-1,2-oxazol-5-yl)butanoyl]pyrrolidine-2-carboxamide]	≥ 10 nM	< 50%	≥ 1000 nM	A (“A” indicates maximum degradation ≥ 75%)
Cc1ncsc1-c1ccc([C@H](C)NC(=O)[C@@H]2C[C@@H](O)CN2C(=O)[C@@H](c2cc(C34CC(CN5CCC(c6sc7nnc(-c8ccccc8O)cc7c6C)CC5)(C3)C4)no2)C(C)C)cc1 [Compound 72, (2S,4R)-4-hydroxy-1-[(2R)-2-{3-[3-({4-[3-(2-hydroxyphenyl)-5-methylthieno[2,3-c]pyridazin-6-yl]piperidin-1-yl}methyl)bicyclo[1.1.1]pentan-1-yl]-1,2-oxazol-5-yl}-3-methylbutanoyl]-N-[(1S)-1-[4-(4-methyl-1,3-thiazol-5-yl)phenyl]ethyl]pyrrolidine-2-carboxamide]	< 10 nM	≥ 75%	≥ 10 nM	A (“A” indicates maximum degradation ≥ 75%)
Cc1ncsc1-c1ccc([C@H](C)NC(=O)[C@@H]2C[C@@H](O)CN2C(=O)[C@@H](c2cc(OCCN3CCC(O)(c4cc5nnc(-c6ccccc6O)cc5s4)CC3)no2)C(C)C)cc1 [Compound 73, (2S,4R)-4-hydroxy-1-((R)-2-(3-(2-(4-hydroxy-4-(3-(2-hydroxyphenyl)thieno[3,2-c]pyridazin-6-yl)piperidin-1-yl)ethoxy)isoxazol-5-yl)-3-methylbutanoyl)-N-((S)-1-(4-(4-methylthiazol-5-yl)phenyl)ethyl)pyrrolidine-2-carboxamide]	≥ 10 nM	< 50%	≥ 1000 nM	A (“A” indicates maximum degradation ≥ 75%)
Cc1ncsc1-c1ccc([C@H](C)NC(=O)[C@@H]2C[C@@H](O)CN2C(=O)[C@@H](c2cc(OCCN3C[C@H]4C[C@@H](C3)[C@H]4c3cc4cc(-c5ccccc5O)nnc4s3)no2)C(C)C)cc1 [Compound 74, (2S,4R)-4-hydroxy-1-((R)-2-(3-(2-((1R,5S,6S)-6-(3-(2-hydroxyphenyl)thieno[2,3-c]pyridazin-6-yl)-3-azabicyclo[3.1.1]heptan-3-yl)ethoxy)isoxazol-5-yl)-3-methylbutanoyl)-N-((S)-1-(4-(4-methylthiazol-5-yl)phenyl)ethyl)pyrrolidine-2-carboxamide]	≥ 1000 nM	< 50%	≥ 1000 nM	C (“C” indicates maximum degradation < 50%)
Cc1ncsc1-c1ccc(CNC(=O)[C@@H]2C[C@@H](O)CN2C(=O)[C@@H](NC(=O)C2(F)CC2)C(C)(C)C)c(OCC(=O)N2CCC(c3cc4nnc(-c5ccccc5O)cc4s3)CC2)c1 [Compound 75, (2S,4R)-1-((S)-2-(1-fluorocyclopropane-1-carboxamido)-3,3-dimethylbutanoyl)-4-hydroxy-N-(2-(2-(4-(3-(2-hydroxyphenyl)thieno[3,2-c]pyridazin-6-yl)piperidin-1-yl)-2-oxoethoxy)-4-(4-methylthiazol-5-yl)benzyl)pyrrolidine-2-carboxamide]	≥ 1000 nM	< 50%	≥ 1000 nM	C (“C” indicates maximum degradation < 50%)
Cc1ncsc1-c1ccc(CNC(=O)[C@@H]2C[C@@H](O)CN2C(=O)[C@@H](NC(=O)C2(F)CC2)C(C)(C)C)c(OCCN2CCC(c3cc4nnc(-c5ccccc5O)cc4s3)CC2)c1 [Compound 77, (2S,4R)-1-((S)-2-(1-fluorocyclopropane-1-carboxamido)-3,3-dimethylbutanoyl)-4-hydroxy-N-(2-(2-(4-(3-(2-hydroxyphenyl)thieno[3,2-c]pyridazin-6-yl)piperidin-1-yl)ethoxy)-4-(4-methylthiazol-5-yl)benzyl)pyrrolidine-2-carboxamide]	≥ 1000 nM	< 50%	≥ 1000 nM	C (“C” indicates maximum degradation < 50%)
Cc1ncsc1-c1ccc(CNC(=O)[C@@H]2C[C@@H](O)CN2C(=O)[C@@H](NC(=O)CCN2CCC(c3cc4nnc(-c5ccccc5O)cc4s3)CC2)C(C)(C)C)cc1 [Compound 78, (2S,4R)-4-hydroxy-1-((S)-2-(3-(4-(3-(2-hydroxyphenyl)thieno[3,2-c]pyridazin-6-yl)piperidin-1-yl)propanamido)-3,3-dimethylbutanoyl)-N-(4-(4-methylthiazol-5-yl)benzyl)pyrrolidine-2-carboxamide]	≥ 100 nM	≥ 75%	≥ 1000 nM	B (“B” indicates maximum degradation ≥ 50%)

More lines, main results first:

DC50 (HiBit-BRM fusion protein)	Dmax [1]	DC50 [1]	SMILES	BRM HiBit Degradation Maximum (%) (HiBit-BRM fusion protein)
≥ 10 nM	< 50%	≥ 100 nM	Cc1ncsc1-c1ccc(CNC(=O)[C@@H]2C[C@@H](O)CN2C(=O)[C@@H](NC(=O)C2(F)CC2)C(C)(C)C)c(OCCCN2CCC(c3cc4nnc(-c5ccccc5O)cc4s3)CC2)c1 [Compound 76, (2S,4R)-1-((S)-2-(1-fluorocyclopropane-1-carboxamido)-3,3-dimethylbutanoyl)-4-hydroxy-N-(2-(3-(4-(3-(2-hydroxyphenyl)thieno[3,2-c]pyridazin-6-yl)piperidin-1-yl)propoxy)-4-(4-methylthiazol-5-yl)benzyl)pyrrolidine-2-carboxamide]	B (“B” indicates maximum degradation ≥ 50%)
≥ 100 nM	< 50%	≥ 1000 nM	Cc1ncsc1-c1ccc(CNC(=O)[C@@H]2C[C@@H](O)CN2C(=O)[C@@H](NC(=O)CCC(=O)N2CCC(c3cc4nnc(-c5ccccc5O)cc4s3)CC2)C(C)(C)C)cc1 [Compound 79, (2S,4R)-4-hydroxy-1-((S)-2-(4-(4-(3-(2-hydroxyphenyl)thieno[3,2-c]pyridazin-6-yl)piperidin-1-yl)-4-oxobutanamido)-3,3-dimethylbutanoyl)-N-(4-(4-methylthiazol-5-yl)benzyl)pyrrolidine-2-carboxamide]	C (“C” indicates maximum degradation < 50%)
≥ 100 nM	< 50%	≥ 1000 nM	Cc1ncsc1-c1ccc(CNC(=O)[C@@H]2C[C@@H](O)CN2C(=O)[C@@H](NC(=O)CCCC(=O)N2CCC(c3cc4nnc(-c5ccccc5O)cc4s3)CC2)C(C)(C)C)cc1 [Compound 80, (2S,4R)-4-hydroxy-1-((S)-2-(5-(4-(3-(2-hydroxyphenyl)thieno[3,2-c]pyridazin-6-yl)piperidin-1-yl)-5-oxopentanamido)-3,3-dimethylbutanoyl)-N-(4-(4-methylthiazol-5-yl)benzyl)pyrrolidine-2-carboxamide]	B (“B” indicates maximum degradation ≥ 50%)
